Experimental data reported in US5124253A (Medisense, Inc., priority 1988, dated 1992).
Values joined by “and” are separate entries in the source; they are usually repeats but may differ in a detail not shown here. Equal entries are not always repeated.

Experiments:
[1] = test system: bovine liver alkaline phosphatase; conditions: particularly isozyme from bovine liver; cited from earlier work
[2] = cited from earlier work
[3] = cyclic voltammetry of substrate and product; format: physicochemical
Excerpt: Typically, in the test element, the enzyme and the substrate are in separate carbon-based layers. The respective carbon mixtures are applied to a conductive track of a support, for example in the close proximity of a reference electrode mixture connected to a second track. In this way, a miniaturized sensor is produced which is capable of working with a small sample of blood bridging the electrode areas. The mixtures are suitably applied by screen printing. Suitable enzymes and suitable substrates can be determined by routine experimentation. Bovine liver alkaline phosphatase is the preferred enzyme, and p-aminophenyl phosphate is the preferred substrate. Other candidate substrates include, for example naphthyl phosphate, and 4-ferrocenylaminophenyl phosphate. […] Furthermore the electrochemistry of p-aminophenol is in a potential region where there would be minimal interference from endogenous blood components.
Cyclic voltammograms of p-aminophenyl phosphate before and after incubation with alkaline phosphatase are shown in FIGS. 3 and 4, the lower voltammogram corresponding to post-incubation.

For Cn1c(=O)c2[nH]cnc2n(C)c1=O [theophylline], the “inhibition of alkaline phosphatase isozymes” value [1] is given as “very potent inhibitor” and the “levels encountered in cases of toxicity” value [2] is given as ≤ 60 μg/ml and ≤ 330 μM.
In the case of Nc1ccc(O)cc1 [p-aminophenol], the “E°' of reversible wave” value [3] was “about -65 mV”.
